Assay results taken from patent US20210024490A1, “METHOD FOR THE PREPARATION OF THE METABOLITES OF (4S)- AND (4R)-4-(4-CYANO-2-METHOXYPHENYL)-5-ETHOXY-2,8-DIMETHYL-1,4-DIHYDRO-1,6-NAPHTHYRIDINE-3-CARBOXAMIDE AND THE USE THEREOF” (Bayer Pharma Aktiengesellschaft, priority 2015, published 2021).

Columns and labels:
[1] = design: species or system humans; conditions: dog, rat, mouse, human, in vivo
Excerpt: For pharmacokinetic measurements, standards of very high quality had to be prepared in order to be able to carry out reliable quantification. From the structural elucidation of the metabolites (via MS of the serum of various animal species and humans) obtained after administration of (4 S)-4-(4-cyano-2-methoxyphenyl)-5-ethoxy-2,8-dimethyl-1,4-dihydro-1,6-naphthyridine-3-carboxamide of the formula 4S (I), the following 6 main metabolites were found (the absolute stereochemistry of the atropisomers can be assigned according to the Cahn-Ingold-Prelog convention and is specified in parentheses):
If the R enantiomer 4R (I) is used, […]

[2] = molecular target: T1, human mineralocorticoid receptor (MR) (Homo sapiens, UniProt P08235); assay: Cellular in vitro assay to determine the inhibitory MR activity (GAL4-steroid hormone receptor chimera, luciferase reporter, CHO K1 cells); assay type: cell-based; conditions: antagonism of aldosterone-stimulated GAL4-MR chimera
T1 construct: expressed in transfected cells; host or cells: CHO K1 (Chinese hamster ovary), stably transfected
T1 sequence (P08235 734-984 limits assumed): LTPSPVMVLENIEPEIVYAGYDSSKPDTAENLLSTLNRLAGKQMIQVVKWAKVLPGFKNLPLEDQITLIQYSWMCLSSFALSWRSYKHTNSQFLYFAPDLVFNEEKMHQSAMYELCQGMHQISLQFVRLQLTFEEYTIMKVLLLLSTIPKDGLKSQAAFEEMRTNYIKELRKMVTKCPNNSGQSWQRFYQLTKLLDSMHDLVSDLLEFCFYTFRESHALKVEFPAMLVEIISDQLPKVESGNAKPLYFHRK
Excerpt: B-1. Cellular In Vitro Assay to Determine the Inhibitory MR Activity and MR Selectivity Compared with Other Steroid Hormone Receptors
Antagonists of the human mineralocorticoid receptor (MR) are identified, and the efficacy of the compounds described herein is quantified with the aid of a recombinant cell line. The cell is originally derived from a hamster ovary epithelial cell (Chinese Hamster Ovary, CHO K1, ATCC: American Type Culture Collection, VA 20108, USA).
An established chimera system in which the ligand-binding domains of human steroid hormone receptors are fused to the DNA-binding domain of the yeast transcription factor GAL4 is used in this CHO K1 cell line. The GAL4-steroid hormone receptor chimeras produced in this way are cotransfected and stably expressed with a reporter construct in the CHO cells.
To generate the GAL4-steroid hormone receptor chimeras, the GAL4 DNA-binding domain (amino acids 1-147) from the vector pFC2dbd (from Stratagene) is cloned with the PCR-amplified ligand-binding domains of the mineralocorticoid receptor (MR, amino acids 734-985), of the glucocorticoid receptor (GR, amino acids 443-777), of the progesterone receptor (PR, amino acids 680-933) and of the androgen receptor (AR, amino acids 667-919) into the vector pIRES2 (from Clontech). […]
The MR cells are plated out in medium (Optimem, 2.5% FCS, 2 mM glutamine, 10 mM HEPES) in 96-well (or 384- or 1536-well) microliter plates the day before the assay, and are kept in a cell incubator (96% air humidity, 5% v/v CO2, 37° C.). […] After a further incubation time of 5 to 6 hours, the luciferase activity is measured with the aid of a video camera. The relative light units measured give a sigmoidal stimulation curve as a function of the substance concentration. The IC50 values (in mol) are calculated with the aid of the computer program GraphPad PRISM (Version 3.02).

IC50 [2] [µM]	SMILES	main metabolites formed [1]
–	CCOc1ncc(C)c2c1[C@@H](c1ccc(C#N)cc1OC)C(C(N)=O)=C(C)N2 [4R (I), (4R)-4-(4-cyano-2-methoxyphenyl)-5-ethoxy-2,8-dimethyl-1,4-dihydro-1,6-naphthyridine-3-carboxamide]	the metabolites of the b series are principally formed, i.e. M1b (R), M2b (R) and M3b (R)
> 10	CCOc1ncc(C)c2nc(C)c(C(N)=O)c(-c3ccc(C#N)cc3OC)c12 (single isomer, unassigned) [M1b (R)]	–
0.0277	CCOc1ncc(C)c2c1[C@H](c1ccc(C#N)cc1OC)C(C(N)=O)=C(C)N2 [Compound of the formula (I), (4S)-4-(4-cyano-2-methoxyphenyl)-5-ethoxy-2,8-dimethyl-1,4-dihydro-1,6-naphthyridine-3-carboxamide]	metabolized mainly to M1a (S) and the subsequent metabolites M2a (S) and M3a (S)
9.33	CCOc1ncc(C)c2nc(C)c(C(N)=O)c(-c3ccc(C#N)cc3OC)c12 (single isomer, unassigned) [M1a (S)]	–
